In ChEMBL document CHEMBL5390204, “Persephacin Is a Broad-Spectrum Antifungal Aureobasidin Metabolite That Overcomes Intrinsic Resistance in Aspergillus fumigatus” (J Nat Prod, 2023):
Converted amounts (≈) assume the structure as drawn.

Assays:
[1] = test system: Mucor circinelloides; assay: Antifungal activity against Mucor circinelloides 235C7 assessed as reduction in fungal growth incubated for 48 hrs by microplate reader analysis; assay type: functional
[2] = test system: Rhizopus arrhizus; assay: Antifungal activity against Rhizopus oryzae FGSC 9543 assessed as reduction in fungal growth incubated for 48 hrs by microplate reader analysis; assay type: functional
[3] = test system: Aspergillus fumigatus; assay: Antifungal activity against Aspergillus fumigatus MYA 3627 assessed as reduction in fungal viability incubated for 48 hrs by microplate reader analysis; assay type: functional
[4] = test system: Candida parapsilosis; assay: Antifungal activity against Candida parapsilosis ATCC 22019 (Y-12969) assessed as reduction in fungal growth incubated for 48 hrs by microplate reader analysis; assay type: functional; details: Lodderomyces parapsilosis
[5] = test system: Pichia kudriavzevii; assay: Antifungal activity against Candida krusei ATCC 6258 (Y-7179) assessed as reduction in fungal growth incubated for 48 hrs by microplate reader analysis; assay type: functional
[6] = test system: Aspergillus fumigatus; assay: Antifungal activity against Aspergillus fumigatus NRRL5109 assessed as reduction in fungal growth incubated for 48 hrs by microplate reader analysis; assay type: functional
[7] = test system: Fusarium solani; assay: Antifungal activity against Fusarium solani 243G2 assessed as reduction in fungal growth incubated for 48 hrs by microplate reader analysis; assay type: functional
[8] = test system: Paecilomyces lilacinus; assay: Antifungal activity against Paecilomyces lilacinus 165E10 assessed as reduction in fungal viability incubated for 48 hrs by microplate reader analysis; assay type: functional, Purpureocillium lilacinum
[9] = test system: Candida tropicalis; assay: Antifungal activity against Candida tropicalis ATCC750 (Y-12699) assessed as reduction in fungal growth incubated for 48 hrs by microplate reader analysis; assay type: functional
[10] = test system: Candida tropicalis; assay: Antifungal activity against Candida tropicalis ATCC750 (Y-12699) assessed as reduction in fungal viability incubated for 48 hrs by microplate reader analysis; assay type: functional
[11] = test system: Aspergillus fumigatus; assay: Antifungal activity against Aspergillus fumigatus MYA 3627 assessed as reduction in fungal growth incubated for 48 hrs by microplate reader analysis; assay type: functional
[12] = test system: Candida albicans; assay: Antifungal activity against Candida albicans ATCC 10231 assessed as reduction in fungal viability incubated for 48 hrs by microplate reader analysis; assay type: functional
[13] = test system: Candida albicans; assay: Antifungal activity against Candida albicans SC5314 assessed as reduction in fungal growth incubated for 48 hrs by microplate reader analysis; assay type: functional
[14] = test system: Fusarium solani; assay: Antifungal activity against Fusarium solani 243G2 assessed as reduction in fungal viability incubated for 48 hrs by microplate reader analysis; assay type: functional
[15] = test system: Candida parapsilosis; assay: Antifungal activity against Candida parapsilosis ATCC 22019 (Y-12969) assessed as reduction in fungal viability incubated for 48 hrs by microplate reader analysis; assay type: functional
[16] = test system: Candida albicans; assay: Antifungal activity against Candida albicans SC5314 assessed as reduction in fungal viability incubated for 48 hrs by microplate reader analysis; assay type: functional
[17] = test system: Aspergillus fumigatus; assay: Antifungal activity against Aspergillus fumigatus NRRL6113 assessed as reduction in fungal growth incubated for 48 hrs by microplate reader analysis; assay type: functional
[18] = test system: Pichia kudriavzevii; assay: Antifungal activity against Candida krusei ATCC 6258 (Y-7179) assessed as reduction in fungal viability incubated for 48 hrs by microplate reader analysis; assay type: functional
[19] = test system: Aspergillus fumigatus; assay: Antifungal activity against Aspergillus fumigatus NRRL6113 assessed as reduction in fungal viability incubated for 48 hrs by microplate reader analysis; assay type: functional
[20] = test system: Aspergillus flavus; assay: Antifungal activity against Aspergillus flavus NRRL485 assessed as reduction in fungal growth incubated for 48 hrs by microplate reader analysis; assay type: functional
[21] = test system: Paecilomyces lilacinus; assay: Antifungal activity against Paecilomyces lilacinus 165E10 assessed as reduction in fungal growth incubated for 48 hrs by microplate reader analysis; assay type: functional; details: Purpureocillium lilacinum
[22] = test system: Aspergillus niger; assay: Antifungal activity against Aspergillus niger FGSC A732 assessed as reduction in fungal growth incubated for 48 hrs by microplate reader analysis; assay type: functional
[23] = test system: Cryptococcus neoformans; assay: Antifungal activity against Cryptococcus neoformans H99 assessed as reduction in fungal growth incubated for 48 hrs by microplate reader analysis; assay type: functional
[24] = test system: Curvularia lunata; assay: Antifungal activity against Curvularia lunata NRRL6409 assessed as reduction in fungal growth incubated for 48 hrs by microplate reader analysis; assay type: functional
[25] = test system: Cryptococcus neoformans; assay: Antifungal activity against Cryptococcus neoformans H99 assessed as reduction in fungal viability incubated for 48 hrs by microplate reader analysis; assay type: functional
[26] = test system: Aspergillus terreus; assay: Antifungal activity against Aspergillus terreus 191A6 assessed as reduction in fungal growth incubated for 48 hrs by microplate reader analysis; assay type: functional
[27] = test system: Candida albicans; assay: Antifungal activity against Candida albicans ATCC 10231 assessed as reduction in fungal growth incubated for 48 hrs by microplate reader analysis; assay type: functional
[28] = test system: Mucor circinelloides; assay: Antifungal activity against Mucor circinelloides 235C7 assessed as reduction in fungal viability incubated for 48 hrs by microplate reader analysis; assay type: functional
[29] = test system: Rhizopus arrhizus; assay: Antifungal activity against Rhizopus oryzae FGSC 9543 assessed as reduction in fungal viability incubated for 48 hrs by microplate reader analysis; assay type: functional
[30] = test system: Aspergillus terreus; assay: Antifungal activity against Aspergillus terreus 191A6 assessed as reduction in fungal viability incubated for 48 hrs by microplate reader analysis; assay type: functional
[31] = test system: Aspergillus niger; assay: Antifungal activity against Aspergillus niger FGSC A732 assessed as reduction in fungal viability incubated for 48 hrs by microplate reader analysis; assay type: functional
[32] = test system: Curvularia lunata; assay: Antifungal activity against Curvularia lunata NRRL6409 assessed as reduction in fungal viability incubated for 48 hrs by microplate reader analysis; assay type: functional
[33] = test system: Aspergillus flavus; assay: Antifungal activity against Aspergillus flavus NRRL485 assessed as reduction in fungal viability incubated for 48 hrs by microplate reader analysis; assay type: functional
[34] = test system: Aspergillus fumigatus; assay: Antifungal activity against Aspergillus fumigatus NRRL5109 assessed as reduction in fungal viability incubated for 48 hrs by microplate reader analysis; assay type: functional
[35] = test system: Hamigera insecticola; assay: Antifungal activity against Hamigera insecticola NRRL35442 assessed as reduction in fungal viability incubated for 48 hrs by microplate reader analysis; assay type: functional
[36] = test system: Hamigera insecticola; assay: Antifungal activity against Hamigera insecticola NRRL35442 assessed as reduction in fungal growth incubated for 48 hrs by microplate reader analysis; assay type: functional

CC[C@H](C)C[C@H](C)CCCCCCCCC(=O)N[C@H]1C[C@@H](O)[C@@H](NCCN)NC(=O)[C@@H]2[C@@H](O)CCN2C(=O)[C@H]([C@H](O)CCN)NC(=O)[C@H]([C@H](O)[C@@H](O)c2ccc(O)cc2)NC(=O)[C@@H]2C[C@@H](O)CN2C(=O)[C@H]([C@@H](C)O)NC1=O [CASPOFUNGIN]
MFC [1]: > 10 µM
MIC80 [1]: > 10 µM
MFC [2]: > 10 µM
MIC80 [2]: > 10 µM
MFC<=99.9 [3]: >10 µM
MFC [4]: 1.3 µM (≈ 1.42 µg/mL)
MIC80 [4]: 0.3 µM (≈ 0.328 µg/mL)
MFC [5]: 0.3 µM (≈ 0.328 µg/mL)
MIC80 [5]: 0.2 µM (≈ 0.219 µg/mL)
MFC [6]: > 10 µM
MIC80 [6]: > 10 µM
MFC [7]: > 10 µM
MIC80 [7]: 0.2 µM (≈ 0.219 µg/mL)
MFC<=99.9 [8]: >10 µM
MFC [9]: 0.2 µM (≈ 0.219 µg/mL)
MIC80 [9]: 0.03 µM (≈ 0.0328 µg/mL)
MFC<=99.9 [10]: 0.2 µM (≈ 0.219 µg/mL)
MFC [11]: > 10 µM
MIC80 [11]: 0.1 µM (≈ 0.109 µg/mL)
MFC<=99.9 [12]: 5 µM (≈ 5.47 µg/mL)
MFC [13]: 0.63 µM (≈ 0.689 µg/mL)
MIC80 [13]: 0.03 µM (≈ 0.0328 µg/mL)
MFC<=99.9 [14]: >10 µM
MFC<=99.9 [15]: 1.3 µM (≈ 1.42 µg/mL)
MFC<=99.9 [16]: 0.63 µM (≈ 0.689 µg/mL)
MFC [17]: > 10 µM
MIC80 [17]: > 10 µM
MFC<=99.9 [18]: 0.3 µM (≈ 0.328 µg/mL)
MFC<=99.9 [19]: >10 µM
MFC [20]: > 10 µM
MIC80 [20]: > 10 µM
MFC [21]: > 10 µM
MIC80 [21]: > 10 µM
MFC [22]: > 10 µM
MIC80 [22]: 0.1 µM (≈ 0.109 µg/mL)
MFC [23]: > 10 µM
MIC80 [23]: > 10 µM
MFC [24]: 5 µM (≈ 5.47 µg/mL)
MIC80 [24]: 5 µM (≈ 5.47 µg/mL)
MFC<=99.9 [25]: >10 µM
MFC [26]: > 10 µM
MIC80 [26]: 0.13 µM (≈ 0.142 µg/mL)
MFC [27]: 5 µM (≈ 5.47 µg/mL)
MIC80 [27]: 0.03 µM (≈ 0.0328 µg/mL)
MFC<=99.9 [28]: >10 µM
MFC<=99.9 [29]: >10 µM
MFC<=99.9 [30]: >10 µM
MFC<=99.9 [31]: >10 µM
MFC<=99.9 [32]: 5 µM (≈ 5.47 µg/mL)
MFC<=99.9 [33]: >10 µM
MFC<=99.9 [34]: >10 µM
MFC<=99.9 [35]: >10 µM
MFC [36]: > 10 µM
MIC80 [36]: 0.1 µM (≈ 0.109 µg/mL)

CCC(C)n1ncn(-c2ccc(N3CCN(c4ccc(OCC5COC(Cn6cncn6)(c6ccc(Cl)cc6Cl)O5)cc4)CC3)cc2)c1=O (stereo not drawn) [ITRACONAZOLE]
MFC [1]: > 10 µM
MIC80 [1]: 10 µM (≈ 7.06 µg/mL)
MFC [2]: 0.6 µM (≈ 0.423 µg/mL)
MIC80 [2]: 0.6 µM (≈ 0.423 µg/mL)
MFC<=99.9 [3]: >10 µM
MFC [4]: 5 µM (≈ 3.53 µg/mL)
MIC80 [4]: 0.6 µM (≈ 0.423 µg/mL)
MFC [5]: 2.5 µM (≈ 1.76 µg/mL)
MIC80 [5]: 0.6 µM (≈ 0.423 µg/mL)
MFC [6]: 10 µM (≈ 7.06 µg/mL)
MIC80 [6]: 1.3 µM (≈ 0.917 µg/mL)
MFC [7]: 5 µM (≈ 3.53 µg/mL)
MIC80 [7]: 2.5 µM (≈ 1.76 µg/mL)
MFC<=99.9 [8]: 1.3 µM (≈ 0.917 µg/mL)
MFC [9]: > 10 µM
MIC80 [9]: 0.6 µM (≈ 0.423 µg/mL)
MFC<=99.9 [10]: >10 µM
MFC [11]: > 10 µM
MIC80 [11]: 5 µM (≈ 3.53 µg/mL)
MFC<=99.9 [12]: >10 µM
MFC [13]: > 10 µM
MIC80 [13]: 0.135 µM (≈ 0.0953 µg/mL)
MFC<=99.9 [14]: 5 µM (≈ 3.53 µg/mL)
MFC<=99.9 [15]: 5 µM (≈ 3.53 µg/mL)
MFC<=99.9 [16]: >10 µM
MFC [17]: > 10 µM
MIC80 [17]: 1.3 µM (≈ 0.917 µg/mL)
MFC<=99.9 [18]: 2.5 µM (≈ 1.76 µg/mL)
MFC<=99.9 [19]: >10 µM
MFC [20]: 0.6 µM (≈ 0.423 µg/mL)
MIC80 [20]: 0.2 µM (≈ 0.141 µg/mL)
MFC [21]: 1.3 µM (≈ 0.917 µg/mL)
MIC80 [21]: 2.5 µM (≈ 1.76 µg/mL)
MFC [22]: 5 µM (≈ 3.53 µg/mL)
MIC80 [22]: 2.5 µM (≈ 1.76 µg/mL)
MFC [23]: > 10 µM
MIC80 [23]: 0.6 µM (≈ 0.423 µg/mL)
MFC [24]: 5 µM (≈ 3.53 µg/mL)
MIC80 [24]: 2.5 µM (≈ 1.76 µg/mL)
MFC<=99.9 [25]: >10 µM
MFC [26]: 2.5 µM (≈ 1.76 µg/mL)
MIC80 [26]: 0.6 µM (≈ 0.423 µg/mL)
MFC [27]: > 10 µM
MIC80 [27]: 0.06 µM (≈ 0.0423 µg/mL)
MFC<=99.9 [28]: >10 µM
MFC<=99.9 [29]: 0.6 µM (≈ 0.423 µg/mL)
MFC<=99.9 [30]: 2.5 µM (≈ 1.76 µg/mL)
MFC<=99.9 [31]: 5 µM (≈ 3.53 µg/mL)
MFC<=99.9 [32]: 5 µM (≈ 3.53 µg/mL)
MFC<=99.9 [33]: 0.6 µM (≈ 0.423 µg/mL)
MFC<=99.9 [34]: 10 µM (≈ 7.06 µg/mL)
MFC<=99.9 [35]: 1.35 µM (≈ 0.953 µg/mL)
MFC [36]: 1.35 µM (≈ 0.953 µg/mL)
MIC80 [36]: 0.3 µM (≈ 0.212 µg/mL)
